For 26 compounds, IC50 results are on record in US8106091B2, “Inhibitors of IKK-beta serine-threonine protein kinase” (Chroma Therapeutics Ltd., priority 2006, dated 2012).

The first assay relates to THP-1 cells. Description: LPS-stimulation of THP-1 cells, TNF-α release. It is filed as cell-based. Conditions: Homo sapiens, LPS 1 μg/ml, 6 hrs, inhibitor added 2 hrs before, read-out: Inhibitor activity versus THP-1 TNFα release. As to the method: LPS-Stimulation of THP-1 Cells
THP-1 cells were plated in 100 μl at a density of 4×10^4 cells/well in V-bottomed 96 well tissue culture treated plates and incubated at 37° C. in 5% CO2 for 16 hrs. 2 hrs after the addition of the inhibitor in 100 μl of tissue culture media, the cells were stimulated with LPS (E coli strain 005:B5, Sigma) at a final concentration of 1 μg/ml and incubated at 37° C. in 5% CO2 for 6 hrs. TNF-α levels were measured from cell-free supernatants by sandwich ELISA (R&D Systems #QTA00B)
With `NC(=O)Nc1sc(-c2ccc(N(CC[C@H](N)C(=O)OC3CCCC3)Cc3ccccc3)cc2)cc1C(N)=O` [Example 21, Cyclopentyl (2S)-2-amino-4-(benzyl{4-[4-carbamoyl-5-(carbamoylamino)thiophen-2-yl]phenyl}amino)butanoate], the IC50 fell in the range of 1000 to 5000 nM. As to `NC(=O)Nc1sc(-c2ccc(OCC[C@H](NC3CCCCC3)C(=O)OC3CCCC3)cc2)cc1C(N)=O` [Example 19, Cyclopentyl O-{4-[4-carbamoyl-5-(carbamoylamino)thiophen-2-yl]phenyl}-N-cyclohexyl-L-homoserinate], the IC50 was greater than 5000 nM.

Turning to `NC(=O)Nc1sc(-c2ccc(CCC[C@@H](N)C(=O)OC3CCCC3)cc2)cc1C(N)=O` [Example 12, Cyclopentyl 5-{4-[4-carbamoyl-5-(carbamoylamino)-2-thienyl]phenyl}-D-norvalinate], the IC50 is less than 1000 nM.

In the case of `NC(=O)Nc1cc(-c2ccc(C[C@H](N)C(=O)OC3CCCC3)cc2)sc1C(N)=O` [Example 24, Cyclopentyl 4-[5-carbamoyl-4-(carbamoylamino)-2-thienyl]-L-phenylalaninate], the IC50 is greater than 5000 nM.

The target of a further assay is T1, IKBKB (IKKβ) (Homo sapiens, UniProt O14920).
T1 construct: purchased Invitrogen (Paisley, UK)
T1 sequence (O14920 1-756): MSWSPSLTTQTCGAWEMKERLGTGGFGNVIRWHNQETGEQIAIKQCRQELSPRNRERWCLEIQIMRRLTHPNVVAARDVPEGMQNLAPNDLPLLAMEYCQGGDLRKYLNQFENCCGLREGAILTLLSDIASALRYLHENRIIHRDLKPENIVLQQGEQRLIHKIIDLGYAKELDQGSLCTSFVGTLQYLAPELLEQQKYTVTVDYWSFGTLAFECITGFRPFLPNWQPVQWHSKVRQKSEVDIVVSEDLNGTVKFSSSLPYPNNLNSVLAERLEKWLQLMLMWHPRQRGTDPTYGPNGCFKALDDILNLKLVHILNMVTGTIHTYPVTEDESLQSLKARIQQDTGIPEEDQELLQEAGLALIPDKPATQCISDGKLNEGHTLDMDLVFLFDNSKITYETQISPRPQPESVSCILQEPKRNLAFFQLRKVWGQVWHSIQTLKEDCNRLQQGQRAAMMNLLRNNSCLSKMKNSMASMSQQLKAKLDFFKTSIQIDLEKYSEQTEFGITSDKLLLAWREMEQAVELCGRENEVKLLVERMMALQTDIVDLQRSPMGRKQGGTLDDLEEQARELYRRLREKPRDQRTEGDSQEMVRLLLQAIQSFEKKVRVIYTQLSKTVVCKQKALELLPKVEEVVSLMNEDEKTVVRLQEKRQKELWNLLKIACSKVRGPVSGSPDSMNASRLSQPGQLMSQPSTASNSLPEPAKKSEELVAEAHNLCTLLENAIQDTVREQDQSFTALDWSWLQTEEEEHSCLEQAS
Description: IKKβ enzyme assay (Z'-LYTE, Invitrogen). It is filed as biochemical. Conditions: ATP at or close to Km; read-out: Inhibitor activity versus IKKβ. As to the method:
The ability of compounds to inhibit IKKβ kinase activity was measured in an assay performed by Invitrogen (Paisley, UK). The Z′-LYTE™ biochemical assay employs a fluorescence-based, coupled-enzyme format and is based on the differential sensitivity of phosphorylated and non-phosphorylated peptides to proteolytic cleavage. The peptide substrate is labelled with two fluorophores—one at each end—that make up a FRET pair. In the primary reaction, the kinase transfers the gamma-phosphate of ATP to a single serine or threonine residue in a synthetic FRET-peptide. In the secondary reaction, a site-specific protease recognizes and cleaves non-phosphorylated FRET-peptides. Phosphorylation of FRET-peptides suppresses cleavage by the Development Reagent. Cleavage disrupts FRET between the donor (i.e., coumarin) and acceptor (i.e. fluorescein) fluorophores on the FRET-peptide, whereas uncleaved, phosphorylated FRET-peptides maintain FRET. A […] method, which calculates the ratio (the Emission Ratio) of donor emission to acceptor emission after excitation of the donor fluorophore at 400 nm, is used to quantitate reaction progress.
The final 10 μL Kinase Reaction consists of 0.9-8.0 ng IKBKB (IKKβ), 2 μM Ser/Thr 05 Peptide and ATP in 50 mM HEPES pH 7.5, 0.01% BRIJ-35, 10 mM MgCl2, 1 mM EGTA. The assay is performed at an ATP concentration at, or close to the Km. After the 60 minute Kinase Reaction incubation at room temperature, 5 μL of a 1:128 dilution of Development Reagent is added. The assay plate is incubated for a further 60 minutes at room temperature and read on a fluorescence plate reader.
Duplicate data points are generated from a ⅓ log dilution series of a stock solution of test compound in DMSO. Nine dilutions steps are made from a top concentration of 10 μM, and a ‘no compound’ blank is included. Data is collected and analysed using XLfit software from IDBS. The dose response curve is curve fitted to model number 205 (sigmoidal dose-response model). From the curve generated, the concentration giving 50% inhibition is determined and reported.
Turning to `NC(=O)Nc1sc(-c2ccc(OCC[C@H](N)C(=O)O)cc2Cl)cc1C(N)=O` [Example 31, O-{4-[4-carbamoyl-5-(carbamoylamino)-2-thienyl]-3-chlorophenyl}-L-homoserine], the IC50 was less than 1000 nM. In the case of `NC(=O)Nc1cc(-c2ccc(OCC[C@H](N)C(=O)O)cc2)sc1C(N)=O` [Example 46, O-{4-[5-carbamoyl-4-(carbamoylamino)-2-thienyl]phenyl}-L-homoserine], the IC50 was less than 1000 nM. Consider `NC(=O)Nc1sc(-c2ccc(OCC[C@H](N)C(=O)O)c(Cl)c2)cc1C(N)=O` [Example 32, O-{4-[4-carbamoyl-5-(carbamoylamino)-2-thienyl]-2-chlorophenyl}-L-homoserine], for which the IC50 was less than 1000 nM. Turning to `NC(=O)Nc1sc(-c2ccc(/C=C/C[C@@H](NC3CCCCC3)C(=O)O)cc2)cc1C(N)=O` [Example 44, (2R,4E)-5-{4-[4-carbamoyl-5-(carbamoylamino)thiophen-2-yl]phenyl}-2-(cyclohexylamino)pent-4-enoic acid], the IC50 was less than 1000 nM.

As for `Cc1cc(-c2cc(C(N)=O)c(NC(N)=O)s2)ccc1OCC[C@H](N)C(=O)O` [Example 30, O-{4-[4-carbamoyl-5-(carbamoylamino)-2-thienyl]-2-methylphenyl}-L-homoserine], the IC50 was less than 1000 nM.

On to `NC(=O)Nc1cc(-c2ccc(C[C@H](N)C(=O)O)cc2)sc1C(N)=O` [Example 47, 4-[5-carbamoyl-4-(carbamoylamino)2-thienyl]-L-phenylalanine], for which the IC50 is less than 1000 nM.

Take `NC(=O)Nc1sc(-c2ccc(COCC[C@H](N)C(=O)O)cc2)cc1C(N)=O` [Example 41, O-{4-[4-carbamoyl-5-(carbamoylamino)-2-thienyl]benzyl}-L-homoserine]: the IC50 was less than 1000 nM. With `NC(=O)Nc1sc(-c2ccc(N(CC[C@H](N)C(=O)OC3CCCC3)Cc3ccccc3)cc2)cc1C(N)=O` [Example 21, Cyclopentyl (2S)-2-amino-4-(benzyl{4-[4-carbamoyl-5-(carbamoylamino)thiophen-2-yl]phenyl}amino)butanoate], the IC50 was less than 1000 nM. As to `NC(=O)Nc1sc(-c2ccc(OCC[C@H](NC3CCCCC3)C(=O)OC3CCCC3)cc2)cc1C(N)=O` [Example 19, Cyclopentyl O-{4-[4-carbamoyl-5-(carbamoylamino)thiophen-2-yl]phenyl}-N-cyclohexyl-L-homoserinate], the IC50 is less than 1000 nM. For the compound `NC(=O)Nc1sc(-c2ccc(N(CC[C@H](N)C(=O)O)Cc3ccccc3)cc2)cc1C(N)=O` [Example 45, (2S)-2-amino-4-(benzyl{4-[4-carbamoyl-5-(carbamoylamino)thiophen-2-yl]phenyl}amino)butanoic acid], the IC50 is less than 1000 nM. Consider `NC(=O)Nc1sc(-c2ccc(CCC[C@@H](N)C(=O)OC3CCCC3)cc2)cc1C(N)=O` [Example 12, Cyclopentyl 5-{4-[4-carbamoyl-5-(carbamoylamino)-2-thienyl]phenyl}-D-norvalinate], for which the IC50 was less than 1000 nM. Consider `NC(=O)Nc1sc(-c2ccc(C#CC[C@H](N)C(=O)O)cc2)cc1C(N)=O` [Example 39, (2S)-2-amino-5-{4-[4-carbamoyl-5-(carbamoylamino)-2-thienyl]phenyl}pent-4-ynoic acid], for which the IC50 was less than 1000 nM. With `NC(=O)Nc1sc(-c2ccc(/C=C/C[C@H](N)C(=O)O)cc2Cl)cc1C(N)=O` [Example 37, (2S,4E)-2-amino-5-{4-[4-carbamoyl-5-(carbamoylamino)-2-thienyl]-3-chlorophenyl}pent-4-enoic acid], the IC50 is less than 1000 nM. On to `NC(=O)Nc1sc(-c2ccc(/C=C/C[C@H](N)C(=O)O)cc2)cc1C(N)=O` [Example 33, (2S,4E)-2-amino-5-{4-[4-carbamoyl-5-(carbamoylamino)-2-thienyl]phenyl}pent-4-enoic acid], for which the IC50 is less than 1000 nM.

Regarding `NC(=O)Nc1sc(-c2ccc(OCCC[C@H](N)C(=O)O)cc2)cc1C(N)=O` [Example 27, 5-{4-[4-carbamoyl-5-(carbamoylamino)-2-thienyl]phenoxy}-L-norvaline], the IC50 was less than 1000 nM.

In the case of `NC(=O)Nc1cc(-c2ccc(C[C@H](N)C(=O)OC3CCCC3)cc2)sc1C(N)=O` [Example 24, Cyclopentyl 4-[5-carbamoyl-4-(carbamoylamino)-2-thienyl]-L-phenylalaninate], the IC50 was less than 1000 nM. As to `NC(=O)Nc1sc(-c2ccc(CCC[C@H](N)C(=O)O)cc2)cc1C(N)=O` [Example 35, 5-{4-[4-carbamoyl-5-(carbamoylamino)-2-thienyl]phenyl}-L-norvaline], the IC50 was less than 1000 nM.

Consider `NC(=O)Nc1sc(-c2ccc(CCC[C@@H](N)C(=O)O)cc2)cc1C(N)=O` [Example 36, 5-{4-[4-carbamoyl-5-(carbamoylamino)-2-thienyl]phenyl}-D-norvaline], for which the IC50 is less than 1000 nM.

Consider `NC(=O)Nc1sc(-c2ccc(/C=C/C[C@@H](N)C(=O)O)cc2)cc1C(N)=O` [Example 34, (2R,4E)-2-amino-5-{4-[4-carbamoyl-5-(carbamoylamino)-2-thienyl]phenyl}pent-4-enoic acid], for which the IC50 is less than 1000 nM. Take `NC(=O)Nc1sc(-c2ccc(C[C@H](N)C(=O)O)cc2)cc1C(N)=O` [Example 40, 4-[4-carbamoyl-5-(carbamoylamino)-2-thienyl]-L-phenylalanine]: the IC50 was less than 1000 nM. As for `NC(=O)Nc1sc(-c2ccc(OCCC[C@@H](N)C(=O)O)cc2)cc1C(N)=O` [Example 28, 5-{4-[4-carbamoyl-5-(carbamoylamino)-2-thienyl]phenoxy}-D-norvaline], the IC50 was less than 1000 nM. Still for that read-out and setting: for `NC(=O)Nc1sc(-c2ccc(OCC[C@@H](N)C(=O)O)cc2)cc1C(N)=O` [Example 25, O-{4-[4-Carbamoyl-5-(carbamoylamino)-2-thienyl]phenyl}-D-homoserine] the value was less than 1000 nM; for `Cc1cc(-c2cc(C(N)=O)c(NC(N)=O)s2)ccc1/C=C/C[C@H](N)C(=O)O` [Example 38, (2S,4E)-2-amino-5-{4-[4-carbamoyl-5-(carbamoylamino)-2-thienyl]-2-methylphenyl}pent-4-enoic acid], less than 1000 nM; for `NC(=O)Nc1sc(-c2ccc(/C=C\C[C@H](N)C(=O)O)cc2)cc1C(N)=O` [Example 42, (2S,4Z)-2-amino-5-{4-[4-carbamoyl-5-(carbamoylamino)-2-thienyl]phenyl}pent-4-enoic acid], less than 1000 nM. Regarding `NC(=O)Nc1sc(-c2ccc(OCC[C@H](NC3CCCCC3)C(=O)O)cc2)cc1C(N)=O` [Example 43, O-{4-[4-carbamoyl-5-(carbamoylamino)thiophen-2-yl]phenyl}-N-cyclohexyl-L-homoserine], the IC50 was less than 1000 nM. Consider `Cc1cc(OCC[C@H](N)C(=O)O)ccc1-c1cc(C(N)=O)c(NC(N)=O)s1` [Example 29, O-{4-[4-carbamoyl-5-(carbamoylamino)-2-thienyl]-3-methylphenyl}-L-homoserine], for which the IC50 is less than 1000 nM.
